Experiments:
[1] = tested on: HCl-Ethanol inducing gastritis model; assay: HCl-Ethanol inducing gastritis model; format: in vivo, white rats
Method: After white rats have been fasted for 24 hours, CD-101, CD-102 and CD-103 compound have been orally administered according to method disclosed in Mizui et al., Jap. J. Pharmacol. 33: pp. 939-945 (1983). After 1 hour, 1.5 ml of 60% ethanol including 150 mM HCl has been orally administered to each animal. 1 hour later, animals have been sacrificed by cervical dislocation. After removing the stomach, the stomach has been fixed by injection of 13 ml of 2% formalin for 1 hour. After fixed stomach has been spread out, the lesion area has been measured using the photo by digital camera. Computer program Image J 1.38 (NIH, Bethesda, Md.) has been applied for measuring gastric lesion area (mm^2) The lesion inhibition rate has been calculated according to following equation. Further, 50% effective dose (ED50) has been also calculated using regression analysis.
Lesion inhibition rate(%)={gastric lesion area of control group(mm^2)−gastric lesion area of drug administration group(mm^2)}/gastric lesion area of control group(mm^2)×100

[2] = tested on: indomethacin inducing stomach ulcer model; assay: Indomethacin inducing stomach ulcer model; format: in vivo, white rats; settings: oral
Method: After white rats have been fasted for 24 hours, CD-101, CD-102 and CD-103 compound have been orally administered according to method disclosed in Yamasaki et al., Jap. J. Pharmacol. 49: pp. 441-448 (1989). After 1 hour, indomethacin (50 mg/kg) has been orally administered to each animal After fasting for 5 hours, animals have been sacrificed by cervical dislocation. After removing the stomach, the stomach has been fixed by injection of 13 ml of 2% formalin for 1 hour. After fixed stomach has been spread out, the lesion area has been measured using the photo by digital camera. Computer program Image J 1.38 (NIH, Bethesda, Md.) has been applied for measuring gastric lesion area (mm^2) The lesion inhibition rate and 50% effective dose (ED50) have been calculated as the same manner of HCl-EtOH model.

[3] = tested on: Chinese hamster lung (CHL) cell; assay: Chromosomal aberration test using Chinese hamster lung (CHL) cell; format: cell-based; settings: for Chromosomal aberration test result: dose not given
Excerpt: For measuring the induction of chromosomal aberration, the chromosomal aberration test has been carried out using Chinese hamster lung (CHL) cell. 2 kinds of methods have been adopted, such as, metabolic activation method (+S9) using metabolic activation system and direct method (−S9) without metabolic activation system.
For determining the test material reacting concentration, the cell growth inhibition test has been carried out. The test material has been dissolved and diluted in dimethyl sulfoxide (DMSO). Regardless of metabolic activation system, 12 concentration steps (2.43, 4.87, 9.75, 19.5, 39.1, 78.1, 156.3, 312.5, 625, 1250, 2500, 5000 μg/ml) of test material have been prepared. The cells have been cultured for 24 hours as the same way of main test. […] The medium has been further cultured for 18 hours.
Based upon the data of cell growth inhibition test, maximum concentration has been determined when the cell growth has been inhibited up to 50% as the relative cell numbers.
Regardless of metabolic activation system, the test materials have been prepared after 24 hours from the initiation of test. Then, the number of chromosomal aberration has been counted.

[4] = +S9 (metabolic activation method)

## C=C1C(=O)O[C@@H]2[C@@H]3[C@@H](CC[C@@]3(C)O)C(=C)CC[C@@H]12 [CD-102]
[1]; Rattus norvegicus, oral, dose 1 mg/kg, read-out: Lesion inhibition rate
  inhibition at 1 mg/kg: 43%
[1]; Rattus norvegicus, oral, dose 3 mg/kg, read-out: Lesion inhibition rate
  inhibition at 3 mg/kg: 70.4%
[1]; Rattus norvegicus, oral, dose 10 mg/kg, read-out: Lesion inhibition rate
  inhibition at 10 mg/kg: 94.9%
[1]; oral, regression analysis
  50% effective dose (ED50): 1.31 mg/kg
[2]; Rattus norvegicus, dose 1 mg/kg, read-out: Lesion inhibition rate
  inhibition at 1 mg/kg: 41.6%
[2]; Rattus norvegicus, dose 3 mg/kg, read-out: Lesion inhibition rate
  inhibition at 3 mg/kg: 56.1%
[2]; Rattus norvegicus, dose 10 mg/kg, read-out: Lesion inhibition rate
  inhibition at 10 mg/kg: 77.2%
[2]; regression analysis
  50% effective dose (ED50): 1.82 mg/kg
[3]; +S9, dose 5 μg/kg
  Chromosomal aberration test results: negative
[3]; +S9, dose 20 μg/kg
  Chromosomal aberration test results: negative
[3]; CHL cell
  Cytotoxicity: neither cytotoxicity
  Induction of chromosomal aberration: do not induce the chromosomal aberration
[3]; −S9, dose 1.25 μg/kg
  Chromosomal aberration test results: negative
[3]; −S9, dose 5 μg/kg
  Chromosomal aberration test results: negative

## CC(=O)O[C@@H]1/C=C(\C)CCC/C(C)=C/[C@H]2OC(=O)[C@H](CN(C)C)C12 (stereo partly shown) [reference compound]
[3]; [4]
  Chromosomal aberration test result: positive positive
[3]; −S9 (direct method)
  Chromosomal aberration test result: positive positive

## C=C1C(=O)O[C@@H]2/C=C(\C)CCC(O)C(C)(O)C[C@@H](OC(C)=O)C12 (stereo partly shown) [reference compound]
[3]; [4]
  Chromosomal aberration test result: positive positive
[3]; −S9 (direct method)
  Chromosomal aberration test result: positive positive

## C=C1C(=O)O[C@@H]2[C@@H]3[C@@H](CC[C@@]3(C)O)[C@](C)(OC)CC[C@@H]12 [CD-103]
[3]; +S9, dose 2.5 μg/kg
  Chromosomal aberration test results: negative
[3]; +S9, dose 5 μg/kg
  Chromosomal aberration test results: negative
[3]; CHL cell
  Induction of chromosomal aberration: do not induce the chromosomal aberration
[3]; −S9, dose 0.625 μg/kg
  Chromosomal aberration test results: negative
[3]; −S9, dose 1.25 μg/kg
  Chromosomal aberration test results: negative

## CO[C@@]12[C@H](COC(N)=O)C3=C(C(=O)C(C)=C(N)C3=O)N1C[C@@H]1N[C@@H]12 [Mitomycin C, reference compound]
[3]; −S9, dose 0.5 μg/kg
  Chromosomal aberration test results: positive

## CC1=C2C3OC(=O)[C@@H](C)[C@@H]3CC[C@@]2(C)C=CC1=O (stereo partly shown) [reference compound]
[1]; Table 2, ineffective compounds, dose not given
  Lesion inhibition rate: no effect

## C=C1C(=O)O[C@@H]2[C@@H](O)[C@]3(C)CC[C@H]3[C@](C)(OC)CC[C@@H]12 [CD-101]
[3]; +S9, dose 20 μg/kg
  Chromosomal aberration test results: negative
[3]; +S9, dose 40 μg/kg
  Chromosomal aberration test results: negative
[3]; CHL cell
  Induction of chromosomal aberration: do not induce the chromosomal aberration
[3]; −S9, dose 5 μg/kg
  Chromosomal aberration test results: negative

## C=C1C(=O)O[C@@H]2/C=C(\C)CC/C=C(\C)C[C@@H](OC(C)=O)C12 (stereo partly shown) [reference compound]
[3]; [4]
  Chromosomal aberration test result: positive positive
[3]; −S9 (direct method)
  Chromosomal aberration test result: positive positive
